# Source: patent US12673951B2, “Substituted pyrazoloquinazolinone compounds and application thereof” (IMPACT THERAPEUTICS (SHANGHAI), INC, priority 2019, dated 2026)
# Like-named read-outs stand apart in the source and are kept apart here.
# How the values were obtained:
# ATM enzyme = molecular target: T1, ATM enzyme (Homo sapiens, UniProt Q13315); experiment: ATM kinase assay (HTRF); format: biochemical; conditions: for inhibition at 0.1 µM / inhibition at 1 µM / inhibition at 10 µM / inhibition at 100 µM: 0.5 h, read-out: Inh (%) ATM kinase inhibition rate; for inhibition at 0.1 µM: C 0.1 μm
# T1 construct: purchased Eurofins 14-933
# Description: The mixture was centrifuged at 1000 rpm for 1 minute, and reacted at room temperature away from light for 30 minutes. Then 5 μL of EDTA stop solution (250 mM) was added to stop the reaction. After 5 μL of detection mixture (Anti-phospho-p53 (ser15)-K (Cisbio, #61P08KAE, 0.084 ng/μL) and Anti-GST-d2 (Cisbio, #61GSTDLA, 5.00 ng/μL)) was finally added to each well, then incubate the plate overnight at room temperature.
# Relative fluorescence ratio was calculated: Ratio665 nm/615 nm-Ratiobackground, and inhibition rate %=(1−(relative fluorescence ratio of test compound well−relative fluorescence ratio of positive control well)/(relative fluorescence ratio of negative control well−relative fluorescence ratio of positive control well))×100 was calculated. Data were analyzed using GraphPad Prism6.0, and fitted using the curve equation: Y=Bottom+(Top−Bottom)/(1+10^((Log IC50−X)×HillSlope)) and IC50 values were calculated.
# [1] = system: human colon cancer cell SW620; experiment: MTT assay, growth of SW620 cells, compounds combined with CPT-11; format: cell-based; conditions: read-out: IC50, growth of SW620 combined with CPT-11
# Description: The cells were seeded into 96-well cell culture plate with appropriate cell density and incubated overnight in a 37° C. 5% CO2 incubator. […] 5 μL of each concentration was added to 120 μL of medium (25 times diluted) and mixed by shaking. […] After removing the original solution, 100 μL of fresh serum-free DMEM medium containing MTT (0.5 mg/mL) was added to each well, the culture was continued. […] GraphPad Prism 6.0 was used to analyze the data. The inhibitory activity of compounds on cell proliferation was plotted based on cell viability and compound concentration.
# [2] = system: human breast cancer cell MDA-MB-468; experiment: MTT assay, growth of MDA-MB-468 cells; format: cell-based; conditions: read-out: IC50, growth of MDA-MB-468
# Description: The cells were seeded into 96-well cell culture plate with appropriate cell density and incubated overnight in a 37° C. 5% CO2 incubator. […] 5 μL of each concentration was added to 120 μL of medium (25 times diluted) and mixed by shaking. The overnight cells were taken and the culture medium was removed, 195 μL of fresh medium was added to each well, and 5 μL of diluted medium containing the corresponding concentration of the tested sample was added, respectively, and the culture plate was then placed in the 5% CO2 cell culture incubator at 37° C. for 7 days (On the fourth day, the medium containing drugs was removed and fresh medium containing drugs was added for continuous cultivation.). After removing the original solution, 100 μL of fresh serum-free DMEM medium containing MTT (0.5 mg/mL) was added to each well, the culture was continued. […] GraphPad Prism 6.0 was used to analyze the data. The inhibitory activity of compounds on cell proliferation was plotted based on cell viability and compound concentration.
# [3] = Homo sapiens, SW-620, 120 h, SW620 cells, medium containing 205 nM CPT-11, 5 days, MTT
# [4] = Homo sapiens, 168 h, MDA-MB-468 cells, 7 days, MTT
# [5] = Homo sapiens, MDA-MB-468, 168 h
# T1 sequence (Q13315 whole entry): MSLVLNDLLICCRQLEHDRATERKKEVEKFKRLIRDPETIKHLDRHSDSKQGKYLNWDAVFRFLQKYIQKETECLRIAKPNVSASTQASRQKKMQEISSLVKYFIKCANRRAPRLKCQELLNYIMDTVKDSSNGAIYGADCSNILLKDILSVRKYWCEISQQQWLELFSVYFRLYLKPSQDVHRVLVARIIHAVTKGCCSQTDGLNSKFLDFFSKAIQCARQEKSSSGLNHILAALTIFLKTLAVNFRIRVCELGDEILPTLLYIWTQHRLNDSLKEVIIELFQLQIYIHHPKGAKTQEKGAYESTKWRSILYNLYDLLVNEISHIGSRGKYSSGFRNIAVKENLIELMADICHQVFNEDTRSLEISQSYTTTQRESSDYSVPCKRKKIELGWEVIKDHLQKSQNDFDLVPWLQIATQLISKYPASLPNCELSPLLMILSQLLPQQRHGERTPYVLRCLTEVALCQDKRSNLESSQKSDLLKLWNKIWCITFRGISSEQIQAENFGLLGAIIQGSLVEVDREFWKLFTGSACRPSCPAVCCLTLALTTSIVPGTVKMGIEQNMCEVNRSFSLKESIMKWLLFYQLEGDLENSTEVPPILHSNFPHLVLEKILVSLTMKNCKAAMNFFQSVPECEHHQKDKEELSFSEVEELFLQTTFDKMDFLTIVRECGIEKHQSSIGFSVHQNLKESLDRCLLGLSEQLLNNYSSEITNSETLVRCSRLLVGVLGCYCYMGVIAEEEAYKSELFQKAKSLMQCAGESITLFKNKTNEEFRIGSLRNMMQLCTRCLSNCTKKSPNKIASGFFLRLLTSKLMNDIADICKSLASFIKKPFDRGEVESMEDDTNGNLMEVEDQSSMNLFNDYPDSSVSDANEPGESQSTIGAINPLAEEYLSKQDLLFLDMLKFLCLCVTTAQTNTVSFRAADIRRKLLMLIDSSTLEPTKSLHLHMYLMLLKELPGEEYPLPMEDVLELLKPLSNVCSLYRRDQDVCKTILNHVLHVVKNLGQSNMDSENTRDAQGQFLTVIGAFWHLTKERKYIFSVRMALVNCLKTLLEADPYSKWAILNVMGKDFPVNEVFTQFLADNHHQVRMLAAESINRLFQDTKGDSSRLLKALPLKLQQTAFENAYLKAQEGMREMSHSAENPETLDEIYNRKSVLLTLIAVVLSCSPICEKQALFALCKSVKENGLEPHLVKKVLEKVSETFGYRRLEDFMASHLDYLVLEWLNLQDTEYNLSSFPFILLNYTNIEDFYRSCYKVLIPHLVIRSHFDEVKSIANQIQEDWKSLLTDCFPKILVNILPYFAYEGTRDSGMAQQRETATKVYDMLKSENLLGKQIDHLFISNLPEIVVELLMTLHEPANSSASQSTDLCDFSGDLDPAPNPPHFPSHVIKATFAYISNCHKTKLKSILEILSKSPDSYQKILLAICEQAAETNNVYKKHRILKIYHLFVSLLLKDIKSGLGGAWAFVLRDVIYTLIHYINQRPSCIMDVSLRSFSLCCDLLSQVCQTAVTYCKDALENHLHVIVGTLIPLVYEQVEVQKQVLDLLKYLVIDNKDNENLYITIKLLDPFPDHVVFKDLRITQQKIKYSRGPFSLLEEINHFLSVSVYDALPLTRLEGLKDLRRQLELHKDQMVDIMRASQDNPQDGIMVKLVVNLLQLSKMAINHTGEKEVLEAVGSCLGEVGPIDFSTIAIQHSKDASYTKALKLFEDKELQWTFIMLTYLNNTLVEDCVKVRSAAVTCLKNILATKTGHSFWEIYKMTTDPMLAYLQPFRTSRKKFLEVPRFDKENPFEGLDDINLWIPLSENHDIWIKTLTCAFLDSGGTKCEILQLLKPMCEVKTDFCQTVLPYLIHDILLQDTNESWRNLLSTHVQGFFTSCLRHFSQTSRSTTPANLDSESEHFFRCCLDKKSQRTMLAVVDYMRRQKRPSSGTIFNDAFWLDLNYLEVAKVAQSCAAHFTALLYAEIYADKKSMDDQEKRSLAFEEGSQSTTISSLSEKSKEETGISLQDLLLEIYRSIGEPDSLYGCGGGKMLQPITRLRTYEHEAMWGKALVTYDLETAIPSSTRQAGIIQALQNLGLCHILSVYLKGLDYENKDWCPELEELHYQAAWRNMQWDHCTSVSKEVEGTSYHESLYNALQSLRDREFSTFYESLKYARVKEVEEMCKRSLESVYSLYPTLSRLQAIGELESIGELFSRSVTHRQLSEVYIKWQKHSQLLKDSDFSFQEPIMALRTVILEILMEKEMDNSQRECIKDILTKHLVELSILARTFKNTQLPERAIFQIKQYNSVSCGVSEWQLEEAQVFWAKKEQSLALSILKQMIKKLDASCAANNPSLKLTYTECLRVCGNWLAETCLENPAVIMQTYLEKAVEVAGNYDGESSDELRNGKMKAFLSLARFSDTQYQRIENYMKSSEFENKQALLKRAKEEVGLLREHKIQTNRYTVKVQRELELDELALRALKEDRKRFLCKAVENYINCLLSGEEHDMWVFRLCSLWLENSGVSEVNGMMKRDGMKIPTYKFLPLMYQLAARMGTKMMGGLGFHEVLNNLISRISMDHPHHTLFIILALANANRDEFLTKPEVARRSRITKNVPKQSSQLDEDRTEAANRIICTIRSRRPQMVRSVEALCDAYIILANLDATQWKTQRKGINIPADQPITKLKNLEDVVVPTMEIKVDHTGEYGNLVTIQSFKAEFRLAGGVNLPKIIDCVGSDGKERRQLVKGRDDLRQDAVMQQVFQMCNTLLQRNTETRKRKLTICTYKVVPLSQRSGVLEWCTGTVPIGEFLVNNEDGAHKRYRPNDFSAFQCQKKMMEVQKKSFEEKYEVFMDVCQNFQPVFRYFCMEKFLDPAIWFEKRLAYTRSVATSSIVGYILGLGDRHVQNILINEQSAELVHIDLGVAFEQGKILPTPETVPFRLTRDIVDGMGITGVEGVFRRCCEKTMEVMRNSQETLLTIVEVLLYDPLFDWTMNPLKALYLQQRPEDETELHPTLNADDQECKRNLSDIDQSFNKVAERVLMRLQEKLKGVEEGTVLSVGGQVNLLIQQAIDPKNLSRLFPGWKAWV
SMILES,inhibition at 0.1 µM (ATM enzyme) [%],inhibition at 1 µM (ATM enzyme; C 1 μm) [%],inhibition at 10 µM (ATM enzyme; C 10 μm) [%],"IC50 [1, 3] [nM]","IC50 [2, 4] [nM]","IC50 ([1]; Homo sapiens, SW-620, 120 h) [nM]","IC50 [2, 5] [nM]",also measured
"Cn1c(=O)c(C2CCOCC2)c2c3cc(-c4ccc(OCCCN5CCCCC5)nc4)ccc3ncn21 [Example 3, 9-(6-(3-(piperidin-1-yl)propoxy)pyridin-3-yl)-3-methyl-1-(tetrahydro-2H-pyran-4-yl)pyrazolo[1,5-c]quinazolin-2(3H)-one]",66,93,98,6.22,6,–,–,–
"CNC1CCN(c2ccc(-c3ccc4ncn5c(c(C6CCOCC6)c(=O)n5C)c4c3)cc2C(F)(F)F)CC1 [Example 10, 9-(4-(4-(methylamino)piperidin-1-yl)-3-(trifluoromethyl)phenyl)-3-methyl-1-(tetrahydro-2H-pyran-4-yl)pyrazolo[1,5-c]quinazolin-2(3H)-one]",87,95,100,1.46,2.27,–,–,–
"CCn1c(=O)c(C2CCOCC2)c2c3cc(-c4ccc(OCCCN(C)C)nc4)ccc3ncn21 [Example 26, 9-(6-(3-(dimethylamino)propoxy)pyridin-3-yl)-3-ethyl-1-(tetrahydro-2H-pyran-4-yl)pyrazolo[1,5-c]quinazolin-2(3H)-one]",–,66.5,–,142,123,–,–,–
"CC(C)c1c(=O)n(C)n2cnc3ccc(-c4ccc(OCCCN(C)C)c(C(F)(F)F)c4)cc3c12 [Example 25, 9-(4-(3-(dimethylamino)propoxy)-3-(trifluoromethyl)phenyl)-1-isopropyl-3-methylpyrazolo[1,5-c]quinazolin-2(3H)-one]",–,–,–,–,–,13.4,13.5,–
"CC(C)c1c(=O)n(C)n2cnc3ccc(-c4ccc(N5CCC(N(C)C)CC5)c(C(F)(F)F)c4)cc3c12 [Example 23, 9-(4-(4-(dimethylamino)piperidin-1-yl)-3-(trifluoromethyl)phenyl)-1-isopropyl-3-methylpyrazolo[1,5-c]quinazolin-2(3H)-one]",–,–,–,–,–,8.49,6.76,–
"CC(C)c1c(=O)n(C)n2cnc3ccc(-c4ccc(OCCCN(C)C)c(F)c4)cc3c12 [Example 24, 9-(4-(3-(dimethylamino)propoxy)-3-fluorophenyl)-1-isopropyl-3-methylpyrazolo[1,5-c]quinazolin-2(3H)-one]",–,–,–,–,–,47.6,43.8,–
"CC(C)c1c(=O)n(C)n2cnc3ccc(-c4ccc(N5CCC(N(C)C)CC5)c(F)c4)cc3c12 [Example 21, 9-(4-(4-(dimethylamino)piperidin-1-yl)-3-fluorophenyl)-1-isopropyl-3-methylpyrazolo[1,5-c]quinazolin-2(3H)-one]",–,–,–,–,–,10.5,7.22,–
"CN(C)CCCOc1ccc(-c2ccc3ncc4c(c3c2)n(C2CCOCC2)c(=O)n4C)cn1 [AZD0156, reference compound]",–,–,–,–,–,–,–,"Inh (%) ATM kinase inhibition rate (ATM enzyme; C 1 μm): 90%; Inh (%) ATM kinase inhibition rate (ATM enzyme; C 10 μm): 95%; Inh (%) ATM kinase inhibition rate (ATM enzyme; C 100 μm): 100%; IC50 ([1]; SW620 cells, medium containing 205 nM CPT-11, 5 days, MTT): 9.77 nM; IC50 ([2]; MDA-MB-468 cells, 7 days, MTT): 9.87 nM"
"CN(C)C1CCN(c2ccc(-c3ccc4ncn5c(c(C6CCOCC6)c(=O)n5C)c4c3)cc2C(F)(F)F)CC1 [Example 8, 9-(4-(4-(dimethylamino)piperidin-1-yl)-3-(trifluoromethyl)phenyl)-3-methyl-1-(tetrahydro-2H-pyran-4-yl)pyrazolo[1,5-c]quinazolin-2(3H)-one]",86,99,100,2.1,2.65,–,–,–
"CC(C)c1c(=O)n(C)n2cnc3ccc(-c4ccc(OCCCN5CCCCC5)nc4)cc3c12 [Example 20, 9-(6-(3-(piperidin-1-yl)propoxy)pyridin-3-yl)-1-isopropyl-3-methyl-pyrazolo[1,5-c]quinazolin-2(3H)-one]",–,–,–,–,–,3.48,2.21,–
"CN(C)C1CCN(c2ccc(-c3ccc4ncn5c(c(C6CCOCC6)c(=O)n5C)c4c3)cc2F)CC1 [Example 6, 9-(4-(4-(dimethylamino)piperidin-1-yl)-3-fluorophenyl)-3-methyl-1-(tetrahydro-2H-pyran-4-yl)pyrazolo[1,5-c]quinazolin-2(3H)-one]",57,94,98,2.69,2.71,–,–,–
"CC(C)c1c(=O)n(C)n2cnc3ccc(-c4ccc(N5CCC(N(C)C)CC5)c(Cl)c4)cc3c12 [Example 22, 9-(3-chloro-4-(4-(dimethylamino)piperidin-1-yl)phenyl)-1-isopropyl-3-methylpyrazolo[1,5-c]quinazolin-2(3H)-one]",–,–,–,–,–,26.1,22.9,–
"CN(C)C1CCN(c2ccc(-c3ccc4ncn5c(c(C6CCOCC6)c(=O)n5C)c4c3)cc2Cl)CC1 [Example 7, 9-(3-chloro-4-(4-(dimethylamino)piperidin-1-yl)phenyl)-3-methyl-1-(tetrahydro-2H-pyran-4-yl)pyrazolo[1,5-c]quinazolin-2(3H)-one]",61,91,96,3.16,3.79,–,–,–
"CN(C)CCCOc1ccc(-c2ccc3ncn4[nH]c(=O)c(C5CCOCC5)c4c3c2)cn1 [Example 1, 9-(6-(3-(dimethylamino)propoxy)pyridin-3-yl)-1-(tetrahydro-2H-pyran-4-yl)pyrazolo[1,5-c]quinazolin-2(3H)-one]",–,0,23,> 1000,231,–,–,inhibition at 100 µM (ATM enzyme; C 100 μm): 69%
"CN(C)CCCOc1ccc(-c2ccc3ncn4c(c(C5CCOCC5)c(=O)n4C)c3c2)cc1C(F)(F)F [Example 5, 9-(4-(3-(dimethylamino)propoxy)-3-(trifluoromethyl)phenyl)-3-methyl-1-(tetrahydro-2H-pyran-4-yl)pyrazolo[1,5-c]quinazolin-2(3H)-one]",61,93,100,1.52,2.38,–,–,–
"CN(C)CCCOc1ccc(-c2ccc3ncn4c(c(C5CCOCC5)c(=O)n4C)c3c2)cn1 [Example 2, 9-(6-(3-(dimethylamino)propoxy)pyridin-3-yl)-3-methyl-1-(tetrahydro-2H-pyran-4-yl)pyrazolo[1,5-c]quinazolin-2(3H)-one]",–,87,96,9.8,9.5,–,–,inhibition at 100 µM (ATM enzyme; C 100 μm): 100%
"CCNC1CCN(c2ccc(-c3ccc4ncn5c(c(C6CCOCC6)c(=O)n5C)c4c3)cc2C(F)(F)F)CC1 [Example 11, 9-(4-(4-(ethylamino)piperidin-1-yl)-3-(trifluoromethyl)phenyl)-3-methyl-1-(tetrahydro-2H-pyran-4-yl)pyrazolo[1,5-c]quinazolin-2(3H)-one]",66,95,100,4.82,3.55,–,–,–
"CC(C)c1c(=O)n(C)n2cnc3ccc(-c4ccc(OCCCN(C)C)nc4)cc3c12 [Example 19, 9-(6-(3-(dimethylamino)propoxy)pyridin-3-yl)-1-isopropyl-3-methylpyrazolo[1,5-c]quinazolin-2(3H)-one]",–,–,–,–,–,5.67,5.55,–
